Laboratory results published in patent US8058242B2, “Chimeric proteins with natriuretic activity” (The University of Queensland, priority 2004, dated 2011).
Positions of bridges follow the written chain, without caps; N, C: chain ends. Residues, ends and D or L forms follow the SMILES beside them.

What was measured:
[1] = system: denuded aortic rings, GC A receptor; test: Relaxation of noradrenaline constricted endothelium-denuded aortic rings (Example 11); design: species or system rat; settings: GC-A mediated
Method: Male Sprague Dawley rats were killed and the descending thoracic aorta rapidly removed and flushed with physiological solution. After being cleared of adhering fat and connective tissue, 5 mm rings were mounted under 10 g resting tension, between two stainless steel hooks, in organ baths (37° C.) containing carbogenated (95% O2 and 5% CO2) physiological salt solution of the following composition (mM): NaCl, 118.4; NaHCO3, 25; glucose, 11; KCl, 4.7; MgSO4, 1.2; KH2PO4, 1.2 and CaCl2, 2.5. The lower hook was attached to a tissue holder and the upper hook to a force displacement transducer (Grass FTO3). Where indicated endothelial cells were removed by gentle rubbing of the intimal surface with a wire. To confirm the presence or absence of endothelial cells, tissues were precontracted with a sub-maximal concentration of phenylephrine (0.3 μM) and the response to acetylcholine (ACh, 10 μM) observed. Ach-induced relaxation greater than 80% of maximum indicated the presence of endothelium; whereas Ach-induced relaxation less than 10% indicated the absence of endothelium. Ring preparations under resting tension were conditioned by two contraction/relaxation cycles with 40 mM KCl, contracted by a third application of 40 mM KCl and then relaxed with different doses of the venom peptides. Responses were expressed as a percentage relaxation of the precontraction by KCl.
In addition to the peptides tested in example 3, a series of 13 analogs corresponding to the 2a, 2b and 2c grouping of peptides were examined for their ability to dilate noradrenaline constricted aortic rings. The degree of constriction was expressed as a percentage of the KCl induced constriction. The aortic rings were prepared in a manner similar to the method described in example 3. […]. In each case there were at least 3 separate aortic rings tested per peptide and all were denuded of endothelium to ensure responses were confined to the GC A receptor.

conscious rabbits = test: Blood pressure and heart rate in conscious rabbits, intravenous infusion dose-response (Example 8); settings: for recovery of MAP, in words: 2 hours after infusion; for MAP at final dose / Recovery (MAP) / Recovery Delta SED (MAP) / Treatment Effect, change of mean blood pressure during the infusion: Table 10B; for Recovery (MAP) / Recovery Delta SED (MAP): after a 2 hour recovery period; for Treatment Effect, change of mean blood pressure during the infusion: final dose, groups 2B and 2C
[2] = target: T1, Natriuretic Peptide Receptor-A (NPR-A) signaling in MDCK cells (Canis lupus familiaris, UniProt A0A8I3MHU3); type: cell-based, canine; settings: stimulation of cGMP accumulation in MDCK cells; for EC50: read-out: EC50 (M) ± Standard Error
T1 sequence (A0A8I3MHU3 32-1060): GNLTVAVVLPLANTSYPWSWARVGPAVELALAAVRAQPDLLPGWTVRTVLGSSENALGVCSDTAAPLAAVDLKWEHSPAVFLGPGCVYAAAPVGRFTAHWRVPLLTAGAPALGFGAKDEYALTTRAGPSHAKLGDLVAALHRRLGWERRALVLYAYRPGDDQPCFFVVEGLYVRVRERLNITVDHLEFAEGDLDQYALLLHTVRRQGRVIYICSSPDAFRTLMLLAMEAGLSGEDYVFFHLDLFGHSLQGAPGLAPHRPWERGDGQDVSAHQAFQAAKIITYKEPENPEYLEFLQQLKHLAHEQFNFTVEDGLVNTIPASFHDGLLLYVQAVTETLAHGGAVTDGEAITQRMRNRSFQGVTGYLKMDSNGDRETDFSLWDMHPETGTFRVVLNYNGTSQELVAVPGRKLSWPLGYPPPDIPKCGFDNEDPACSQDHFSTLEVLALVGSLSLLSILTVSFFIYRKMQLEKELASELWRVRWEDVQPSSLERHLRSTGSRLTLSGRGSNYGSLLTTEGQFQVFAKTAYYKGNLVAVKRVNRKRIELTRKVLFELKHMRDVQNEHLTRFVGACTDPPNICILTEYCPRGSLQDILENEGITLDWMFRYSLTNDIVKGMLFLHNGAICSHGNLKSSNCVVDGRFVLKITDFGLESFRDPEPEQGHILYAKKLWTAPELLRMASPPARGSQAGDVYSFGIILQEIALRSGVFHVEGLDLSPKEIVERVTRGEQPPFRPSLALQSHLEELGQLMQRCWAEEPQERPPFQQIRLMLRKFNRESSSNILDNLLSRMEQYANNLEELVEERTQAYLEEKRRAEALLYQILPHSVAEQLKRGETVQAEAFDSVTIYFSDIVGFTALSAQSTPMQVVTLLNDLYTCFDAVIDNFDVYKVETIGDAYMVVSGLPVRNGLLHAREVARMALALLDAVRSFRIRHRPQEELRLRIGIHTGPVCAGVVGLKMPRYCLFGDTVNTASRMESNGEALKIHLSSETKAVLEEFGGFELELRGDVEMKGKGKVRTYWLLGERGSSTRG

Row | Structure (SMILES) | Mean relaxation SEM of denuded aortic rings expressed as % of KCl response [1] | recovery of MAP, in words (conscious rabbits) | MAP at final dose (conscious rabbits) | Recovery (MAP) (conscious rabbits) | Recovery Delta SED (MAP) (conscious rabbits) | Treatment Effect, change of mean blood pressure during the infusion (conscious rabbits) | −Log10 EC50 (pEC50) ± Standard Error [2] | EC50 [2]
1 | CC[C@H](C)[C@@H]1NC(=O)[C@H](CCCNC(=N)N)NC(=O)[C@H](CC(=O)O)NC(=O)[C@H](CC(C)C)NC(=O)[C@@H]2CCCN2C(=O)[C@H](Cc2ccccc2)NC(=O)CNC(=O)[C@H](Cc2ccccc2)NC(=O)[C@@H](NC(=O)CNC(=O)[C@H](CO)NC(=O)CNC(=O)[C@H](CCC(N)=O)NC(=O)[C@@H](NC(=O)[C@H](CCSC)NC(=O)[C@H](CCCCN)NC(=O)[C@@H]2CCCN2C(=O)[C@@H](N)CO)C(C)C)CSSC[C@@H](C(=O)N[C@@H](CC(N)=O)C(=O)N[C@@H](CCCNC(=N)N)C(=O)N[C@H](C(=O)N[C@@H](CCSC)C(=O)N[C@@H](CCC(N)=O)C(=O)N[C@@H](CC(N)=O)C(=O)N2CCC[C@H]2C(=O)N2CCC[C@H]2C(=O)N[C@@H](CCCCN)C(=O)N[C@@H](CCCCN)C(=O)N[C@@H](Cc2ccccc2)C(=O)N[C@@H](CO)C(=O)NCC(=O)N[C@@H](CCC(=O)O)C(=O)O)[C@@H](C)CC)NC(=O)CNC(=O)[C@H](CC(C)C)NC(=O)CNC(=O)[C@H](CO)NC(=O)[C@H](C(C)C)NC(=O)[C@H](CO)NC(=O)CNC1=O [TNPc BTT] (H-SPKMVQGSGCFGFPLDRIGSVSGLGCNRIMQNPPKKFSGE-OH; disulfide 10-26; N-terminus assumed) | 62.1 ± 6.6% | did not recover after 2 hours | 63.4 mm Hg | 65.4 mm Hg | 2.1 ± 1.5 mm Hg | −10.8 mm Hg | 8.177 ± 0.1049 | 7.06e-09 M
2 | CC[C@H](C)[C@H](NC(=O)[C@H](CCCCN)NC(=O)[C@H](CO)NC(=O)[C@H](CC(=O)O)NC(=O)[C@@H](N)CO)C(=O)NCC(=O)N[C@@H](C)C(=O)NCC(=O)N[C@H]1CSSC[C@@H](C(=O)N[C@@H](CC(N)=O)C(=O)N[C@@H](CCCNC(=N)N)C(=O)N[C@H](C(=O)N[C@@H](CCSC)C(=O)N[C@@H](CCC(N)=O)C(=O)N[C@@H](CC(N)=O)C(=O)N2CCC[C@H]2C(=O)N2CCC[C@H]2C(=O)N[C@@H](CCCCN)C(=O)N[C@@H](CCCCN)C(=O)N[C@@H](Cc2ccccc2)C(=O)N[C@@H](CO)C(=O)NCC(=O)N[C@@H](CCC(=O)O)C(=O)O)[C@@H](C)CC)NC(=O)CNC(=O)[C@H](CC(C)C)NC(=O)CNC(=O)[C@H](CO)NC(=O)[C@H](C(C)C)NC(=O)[C@H](CO)NC(=O)CNC(=O)[C@H]([C@@H](C)CC)NC(=O)[C@H](CCCNC(=N)N)NC(=O)[C@H](CC(=O)O)NC(=O)[C@H](CC(C)C)NC(=O)[C@@H]2CCCN2C(=O)[C@H](Cc2ccccc2)NC(=O)CNC(=O)[C@H](Cc2ccccc2)NC1=O [TNPc A7] (H-SDSKIGAGCFGFPLDRIGSVSGLGCNRIMQNPPKKFSGE-OH; disulfide 9-25; N-terminus assumed) | 32.9 ± 4.5% | did not recover after 2 hours | 64.0 mm Hg | 71.3 mm Hg | 7.3 ± 2.9 mm Hg | −11.2 mm Hg | 6.867 ± 0.1915 | 1.61e-07 M
